Assay results as given in patent US20120010131A1, “NOVEL CYCLOSPORIN ANALOGUES” (Scynexis, Inc., priority 2009, published 2012).

Columns and labels:
[1] = tested on: HCV RNA replicon ET (luc ubi neo/ET); conditions: read-out: EC50 (effective concentration that reduced viral replication by 50%); HCV replicon ET line, LUC reporter, 72 hours
Description: Compounds were examined in the human hepatoma cell line ET (lub ubi neo/ET), a HCV RNA replicon containing a stable luciferase (LUC) reporter. The HCV RNA replicon ET contains the 5′ end of HCV (with the HCV Internal Ribosome Entry Site (IRES) and the first few amino acids of the HCV core protein) which drives the production of a firefly luciferase (LUC), ubiquitin, and neomycin phosphotransferase (NeoR) fusion protein. Ubiquitin cleavage releases the LUC and NeoR proteins. The EMCV IRES element controls the translation of the HCV […] proteins NS3-NS5. […] At the 3′ end of the replicon is the authentic 3′ NTR of HCV. The activity of the LUC reporter is directly proportional to HCV replication levels and positive-control antiviral compounds produce a reproducible antiviral response using the LUC endpoint.
The activity of the LUC reporter is directly proportional to HCV RNA levels in the human cell line.

cyclophilin A = cyclophilin A (Homo sapiens, UniProt P62937); experiment: Cyclophilin binding competitive ELISA, cyclophilin A; conditions: human recombinant cyclophilin
Sequence of cyclophilin A (P62937 whole entry): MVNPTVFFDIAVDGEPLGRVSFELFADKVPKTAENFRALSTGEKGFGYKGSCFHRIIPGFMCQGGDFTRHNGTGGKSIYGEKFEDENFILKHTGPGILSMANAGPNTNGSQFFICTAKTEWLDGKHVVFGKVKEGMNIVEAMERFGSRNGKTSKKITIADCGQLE
Method: (§1) The cyclophilin inhibition binding of compounds of the invention was determined using a competitive ELISA adapted from the methods described by Quesniaux et al. (Eur. J Immunol. 1987, Vol. 17, pages 1359-1365). Activated ester of succinyl spacers bound to D-Lys^8-cylosporine A (D-Lys^8-Cs) was coupled to bovine serum albumin (BSA) through D-lysyl residue in position 8. BSA was dissolved in 0.1 M borate buffer, pH 9.0 (4 mg in 1.4 ml). A hundredfold molar excess of D-Lys^8-Cs dissolved in dimethyl formamide (0.6 ml) was added dropwise to the BSA under vigorous stirring. […] After acetone precipitation of an aliquot of the conjugated protein, no covalently bound D-Lys^8-Cs remained in the acetone solution and the extent of cyclosporine covalent binding was calculated.
(§2) Microtiter Plates were coated with D-Lys^8-Cs-BSA conjugate ([…] in PBS for 24 hours at 4° C.). […] Cyclophilin was detected with anti-cyclophilin rabbit antiserum diluted in 1% BSA containing PBS and incubated overnight at 4° C. […] Bound rabbit antibodies were then detected by goat anti-rabbit IgG conjugated to alkaline phosphatase diluted in 1% BSA-PBS and allowed to incubate for 2 hours at 37° C. […] After incubation with 4-nitrophenyl phosphate (1 g/1 in diethanolamine buffer, pH 9.8) for 1 to 2 hours at 37° C., the enzymatic reaction was measured spectrophotometrically at 405 nm using a spectrophotometer.

cyclophilin B = cyclophilin B (Homo sapiens, UniProt P23284); experiment: Cyclophilin binding competitive ELISA, cyclophilin B; conditions: human recombinant cyclophilin
Sequence of cyclophilin B (P23284 34-216): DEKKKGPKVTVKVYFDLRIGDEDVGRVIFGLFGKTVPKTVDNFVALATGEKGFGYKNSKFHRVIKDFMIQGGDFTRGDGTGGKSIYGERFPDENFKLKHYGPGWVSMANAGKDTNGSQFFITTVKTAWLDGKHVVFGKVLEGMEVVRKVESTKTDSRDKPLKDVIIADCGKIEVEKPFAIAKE
Method: as §1, §2

cyclophilin D = cyclophilin D (Homo sapiens, UniProt P30405); experiment: Cyclophilin binding competitive ELISA, cyclophilin D; conditions: human recombinant cyclophilin
Sequence of cyclophilin D (P30405 30-207): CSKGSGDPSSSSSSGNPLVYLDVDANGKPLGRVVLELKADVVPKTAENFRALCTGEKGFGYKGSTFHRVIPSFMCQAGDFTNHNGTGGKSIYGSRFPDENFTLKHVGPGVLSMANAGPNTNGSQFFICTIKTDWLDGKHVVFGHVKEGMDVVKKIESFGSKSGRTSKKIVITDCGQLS
Method: as §1, §2

IL-2 in Jurkat cells = experiment: T cell stimulation (IL-2) in Jurkat cells with anti-CD3 and anti-CD28 co-stimulation; assay type: cell-based; conditions: 6 hours, Luminex 1-plex
Method: (§3) Compounds of the invention were tested for their T Cell stimulation (IL-2) in Jurkat cells with anti-CD3 and anti-CD28 co-stimulation. […] Cyclosporine A (control) was also run at a 0.5-Log 9-point titration, starting at 500 ng/mL. All compounds to be tested were dissolved in dimethyl sulfoxide. Cytotoxicity was evaluated with parallel Alamar Blue plates. Jurkat cells were seeded at 2×10^5 cells per well in 190 μL growth media in a 96-well plate, Cells were cultured in RPMI 1640 medium, 10% fetal bovine serum, and L-Glutamine with incubation at 37° C. with 5% carbon dioxide. After 1 hour of incubation the cells were stimulated with immobilized anti-CD3 (0.4m/well), anti-CD28 soluble (2 μg/mL). After 6 hours the sample supernatants were harvested and stored at −80° C. 50 μL samples of supernatant were tested for IL-2 using a Luminex® 1-plex assay.

Jurkat cells = experiment: Cytotoxicity in parallel Alamar Blue plates (Jurkat cells); assay type: cell-based
Method: as §3

[2] = tested on: mitochondrial permeability transition (MPT); experiment: Mitochondrial permeability transition: Ca2+-induced swelling of rat liver mitochondria; assay type: biochemical; conditions: swelling induced by 150 micromolar Ca2+, compound added 5 minutes before, read-out: EC50 (inhibition of mitochondrial swelling)
Method: Mitochondrial permeability transition (MPT) was determined by measuring swelling of the mitochondria induced by Ca^2+. The procedure was adapted from the method described by Blattner et al, Analytical Biochem, Volume 295, page 220 (2001). Mitochondria were prepared from rat livers, which had been perfused with phosphate-buffered saline (PBS) to remove blood, using standard methods that utilized gentle homogenization in sucrose based buffer and then differential centrifugation to first remove cellular debris and then to pellet the mitochondria. Swelling was induced by 150 micromolar Ca^2+ (added from a concentrated solution of calcium chloride) and was monitored by measuring the scattering at 535-540 nm. Representative compounds were added 5 minutes before swelling was induced. EC50 were determined by comparing swelling with and without the compounds of the invention.

Compound: C/C=C/C[C@@H](C)[C@@H](O)[C@H]1C(=O)N[C@@H](CC)C(=O)N(C)CC(=O)N(C)[C@@H](CC(C)(C)OCc2ccccc2)C(=O)N[C@@H](C(C)C)C(=O)N(C)[C@@H](CC(C)C)C(=O)N[C@@H](C)C(=O)N[C@H](C)C(=O)N(C)[C@@H](CC(C)C)C(=O)N(C)[C@@H](CC(C)C)C(=O)N(C)[C@@H](C(C)C)C(=O)N1C [Compound A, [4′-Benzyloxy-N-methylleucine]^4cyclosporine A]
- EC50 [1]: 410 nM
- cyclophilin A binding value (cyclophilin A): ≤ 98 ng/mL
- cyclophilin B binding value (cyclophilin B): 102 ng/mL
- cyclophilin D binding value (cyclophilin D): 124 ng/mL
- IL-2 activity EC50 (IL-2 in Jurkat cells): 0.043 µg/mL
- Cytotoxicity (Jurkat cells): absence of cytotoxicity
- EC50 [2]: < 10000 nM
